Source: US20100285959A1, “HERBICIDAL MIXTURES” (priority 2006, published 2010)

Legend:
corn (ZEAMD) = test: Test 1 field trial, preemergence; assay type: in vivo, Zea mays ssp. indentata; parameters: scale not given here; conditions: g a.i./ha: Atrazine 1680, S-Metolachlor 1870
Description: (§1) Corn seeds (hybrid ‘Pioneer 34N43’) were planted in mid spring season, 3.8 cm deep in a silt loam soil having 4.6% organic matter and a pH of 6. Plots were 10.7 m long by 1.5 m wide with rows spaced 76 cm apart. Seeds were spaced 18 cm apart within the rows. The field was managed using conventional tillage practices. […] Results are summarized in Table 1 and are the means of the three replicates. […] Colby's Equation (Colby, S. R. “Calculating Synergistic and Antagonistic Responses of Herbicide Combinations,” Weeds, 15(1), pp 20-22 (1967)) calculates the expected additive effect of herbicidal mixtures, and for two active ingredients is of the form:
(§2) Pa+b=Pa+Pb−(PaPb/100) • wherein Pa+b is the percentage effect of the mixture expected from additive contribution of the individual components, • Pa is the observed percentage effect of the first active ingredient at the same use rate as in the mixture, and • Pb is the observed percentage effect of the second active ingredient at the same use rate as in the mixture.

velvetleaf (ABUTH) [1] = test: Test 1 field trial, preemergence; assay type: in vivo, Abutilon theophrasti; parameters: scale not given here; conditions: g a.i./ha: Atrazine 1680, S-Metolachlor 1870
Description: as §1, §2

[2] = test system: common lambsquarters (CHEAL); test: Test 1 field trial, preemergence; assay type: in vivo, Chenopodium album; conditions: g a.i./ha: Atrazine 1680, S-Metolachlor 1870
Description: as §1, §2

[3] = test system: Pennsylvania smartweed (POLPY); test: Test 1 field trial, preemergence; assay type: in vivo, Polygonum pensylvanicum; conditions: g a.i./ha: Atrazine 1680, S-Metolachlor 1870
Description: as §1, §2

giant foxtail (SETFA) [4] = test: Test 1 field trial, preemergence; assay type: in vivo, Setaria faberi; conditions: g a.i./ha: Atrazine 1680, S-Metolachlor 1870
Description: as §1, §2

yellow foxtail (SETLU) [5] = test: Test 1 field trial, preemergence; assay type: in vivo, Setaria glauca; conditions: 56 DAA; g a.i./ha: Atrazine 1680; S-Metolachlor 1870
Description: as §1, §2

field pennycress (THLAR) = test: Test 5 field trial, postemergence; assay type: in vivo, Thlaspi arvense; conditions: atrazine 1120, glufosinate 470 or glyphosate 1120 g a.i./ha alone
Description: Corn seeds (hybrid ‘Pioneer 38H69’) were planted in mid spring season, 5.1 cm deep in a silty clay loam soil having 3% organic matter and a pH of 6.5. Plots were 9.1 m long by 3.0 m wide with rows spaced 76 cm apart. The field was managed using conventional tillage practices. […] All treatments included a surfactant except glufosinate treatments, both alone and in combination. […] Results are summarized in Table 5 and are the means of the three replicates.

velvetleaf (ABUTH) [6] = test: Test 6 field trial, postemergence; assay type: in vivo, Abutilon theophrasti; conditions: 1120 g a.i./ha
Description: (§3) Corn seeds (hybrid ‘Pioneer 35Y62’) were planted in mid spring season, 3.8 cm deep in a silt loam soil having 4% organic matter and a pH of 5.8. Plots were 10.7 m long by 1.5 m wide with rows spaced 76 cm apart. Seeds were spaced 18 cm apart within the rows. The field was managed using conventional tillage practices. […] All treatments included a surfactant except glufosinate treatments, both alone and in combination. […] Results are summarized in Table 6 and are the means of the three replicates.

yellow foxtail (SETLU) [7] = test: Test 6 field trial, postemergence; assay type: in vivo, Setaria glauca; conditions: 1120 g a.i./ha
Description: as §3

[8] = test system: Pennsylvania smartweed (POLPY); test: Test 8 field trial, preemergence; assay type: in vivo, Polygonum pensylvanicum
Description: Corn seeds (hybrid ‘Pioneer 31G96’) were planted in mid spring season, 3.8 cm deep in a clay loam soil having 2% organic matter and a pH of 6.6. Plots were 6.1 m long by 3.0 m wide with rows spaced 76 cm apart. Seeds were spaced 15 cm apart within the rows. The field was managed using conventional tillage practices. […] A few of the weed species could not be evaluated at every timing. […] Results are the means of the three replicates.

common waterhemp (AMATA) = test: Test 10 field trial, preemergence; assay type: in vivo, Amaranthus tamariscinus; conditions: 28 DAA; g a.i./ha: Cpd 2 100, Atrazine 1680, S-Metolachlor 1870
Description: (§4) Corn seeds (hybrid ‘Pioneer 33P65 RR’) were planted in mid spring season, 2.5 cm deep in a silt loam soil. Plots were 9.1 m long by 3.0 m wide with rows spaced 76 cm apart. The field was managed using conventional tillage practices. […] Results are the means of the three replicates.

giant foxtail (SETFA) [9] = test: Test 10 field trial, preemergence; assay type: in vivo, Setaria faberi; conditions: 28 DAA; g a.i./ha: Cpd 2 100, Atrazine 1680, S-Metolachlor 1870
Description: as §4

southern sandbur (CCHEC) = test: Test 11 field trial, preemergence; assay type: in vivo, Cenchrus echinatus; parameters: scale not given here
Description: (§5) Corn seeds (hybrid ‘Pioneer 3041’) were planted in mid spring season, 5 cm deep in a clay soil having 2.6% organic matter and a pH of 5.6. Plots were 8 m long by 1.5 m wide with rows spaced 80 cm apart. Seeds were spaced 15 cm apart within the rows. The field was managed using conventional tillage practices. […] Treatments consisted of Compound 2 or
(§6) Goosegrass was not evaluated 16 or 91 days after application.

[10] = test system: tropical spiderwort (COMBE); test: Test 11 field trial, preemergence; assay type: in vivo, Commelina benghalensis; parameters: scale not given here
Description: as §5, §6

[11] = 29 DAA, g a.i./ha: Cpd 2 100, Atrazine 1680, S-Metolachlor 1870
[12] = 16 DAA, atrazine 1500 or metolachlor 2500 g a.i./ha alone
[13] = 30 DAA, atrazine 1500 or metolachlor 2500 g a.i./ha alone
[14] = 44 DAA, atrazine 1500 or metolachlor 2500 g a.i./ha alone
[15] = 62 DAA, atrazine 1500 or metolachlor 2500 g a.i./ha alone
[16] = 91 DAA, atrazine 1500 or metolachlor 2500 g a.i./ha alone
[17] = 16 DAA, Cpd 2/Cpd 1 at 62 g a.i./ha, alone or + atrazine 1500 or metolachlor 2500
[18] = 16 DAA, Cpd 2/Cpd 1 at 125 g a.i./ha, alone or + atrazine 1500 or metolachlor 2500
[19] = 30 DAA, Cpd 2/Cpd 1 at 62 g a.i./ha, alone or + atrazine 1500 or metolachlor 2500
[20] = 30 DAA, Cpd 2/Cpd 1 at 125 g a.i./ha, alone or + atrazine 1500 or metolachlor 2500
[21] = 44 DAA, Cpd 2/Cpd 1 at 62 g a.i./ha, alone or + atrazine 1500 or metolachlor 2500
[22] = 44 DAA, Cpd 2/Cpd 1 at 125 g a.i./ha, alone or + atrazine 1500 or metolachlor 2500
[23] = 62 DAA, Cpd 2/Cpd 1 at 62 g a.i./ha, alone or + atrazine 1500 or metolachlor 2500
[24] = 62 DAA, Cpd 2/Cpd 1 at 125 g a.i./ha, alone or + atrazine 1500 or metolachlor 2500
[25] = 91 DAA, Cpd 2/Cpd 1 at 62 g a.i./ha, alone or + atrazine 1500 or metolachlor 2500
[26] = 91 DAA, Cpd 2/Cpd 1 at 125 g a.i./ha, alone or + atrazine 1500 or metolachlor 2500

SMILES	ZEAMD Obs (corn (ZEAMD); 28 DAA)	ZEAMD Obs (corn (ZEAMD); 56 DAA)	ABUTH Obs (velvetleaf (ABUTH) [1]; 28 DAA)	ABUTH Obs (velvetleaf (ABUTH) [1]; 56 DAA)	CHEAL Obs ([2]; 28 DAA)	CHEAL Obs ([2]; 56 DAA)	POLPY Obs ([3]; 28 DAA)	POLPY Obs ([3]; 56 DAA)	SETFA Obs (giant foxtail (SETFA) [4]; 28 DAA)	SETFA Obs (giant foxtail (SETFA) [4]; 56 DAA)	SETLU Obs (yellow foxtail (SETLU) [5])	THLAR Obs (field pennycress (THLAR); 16 DAA) [%]	THLAR Obs (field pennycress (THLAR); 31 DAA) [%]	ABUTH Obs (velvetleaf (ABUTH) [6]; 14 DAA) [%]	ABUTH Obs (velvetleaf (ABUTH) [6]; 28 DAA) [%]	SETLU Obs (yellow foxtail (SETLU) [7]; 14 DAA) [%]	SETLU Obs (yellow foxtail (SETLU) [7]; 28 DAA) [%]	POLPY Obs [8, 11] [%]	AMATA Obs (common waterhemp (AMATA)) [%]	SETFA Obs (giant foxtail (SETFA) [9]) [%]	also measured
CCNc1nc(Cl)nc(NC(C)C)n1 [Atrazine, atrazine, reference compound]	0	0	75	0	100	100	93	100	93	0	0	95	100	0	0	0	0	100	83	23	POLPY Obs ([8]; 56 DAA, g a.i./ha: Cpd 2 100, Atrazine 1680): 100%; CCHEC Obs (southern sandbur (CCHEC); [12]): 60; CCHEC Obs (southern sandbur (CCHEC); [13]): 40; CCHEC Obs (southern sandbur (CCHEC); [14]): 40; CCHEC Obs (southern sandbur (CCHEC); [15]): 0; CCHEC Obs (southern sandbur (CCHEC); [16]): 0; COMBE Obs [10, 12]: 99; COMBE Obs [10, 13]: 100; COMBE Obs [10, 14]: 100; COMBE Obs [10, 15]: 97; COMBE Obs [10, 16]: 95
Nc1nc(C2CC2)nc(C(=O)O)c1Cl [Compound 1, 6-amino-5-chloro-2-cyclopropyl-4-pyrimidinecarboxylic acid]	–	–	–	–	–	–	–	–	–	–	–	–	–	–	–	–	–	–	–	–	CCHEC Obs (southern sandbur (CCHEC); [17]): 40; CCHEC Obs (southern sandbur (CCHEC); [18]): 40; CCHEC Obs (southern sandbur (CCHEC); [19]): 20; CCHEC Obs (southern sandbur (CCHEC); [20]): 20; CCHEC Obs (southern sandbur (CCHEC); [21]): 0; CCHEC Obs (southern sandbur (CCHEC); [22]): 40; CCHEC Obs (southern sandbur (CCHEC); [23]): 0; CCHEC Obs (southern sandbur (CCHEC); [24]): 0; CCHEC Obs (southern sandbur (CCHEC); [25]): 0; CCHEC Obs (southern sandbur (CCHEC); [26]): 0; COMBE Obs [10, 17]: 40; COMBE Obs [10, 18]: 60; COMBE Obs [10, 19]: 60; COMBE Obs [10, 20]: 95; COMBE Obs [10, 21]: 60; COMBE Obs [10, 22]: 95; COMBE Obs [10, 23]: 40; COMBE Obs [10, 24]: 60; COMBE Obs [10, 25]: 0; COMBE Obs [10, 26]: 70
O=C(O)CNCP(=O)(O)O [Glyphosate]	–	–	–	–	–	–	–	–	–	–	–	98	100	99	100	97	96	–	–	–	–
CCc1cccc(C)c1N(C(=O)CCl)[C@@H](C)COC [S-Metolachlor, S-metolachlor, reference compound]	0	0	33	0	95	23	57	20	57	100	100	–	–	–	–	–	–	100	70	63	–
